Values after ≈ are worked out from the molar mass of the structure shown.
System: HUVECs (human umbilical vein endothelial cells)
Test: Inhibitory effect of fumagillol derivative on HUVEC cell growth (colorimetry)
Assay type: cell-based
Conditions: Homo sapiens, HUVEC, HUVEC growth, cultured 2–3 days with compound, absorption at 490 nm; read-out: IC50
Experimental: Using the HUVECs (human umbilical vein endothelial), the effect of the fumagillol derivative of the present invention on cell growth was evaluated.
The HUVECs were added to M199 medium supplemented with 20% FBS (fetal bovine serum), 100 U/ml penicillin, 100 μg/ml streptomycin, 1.5 g/L sodium bicarbonate, 0.1 mg/ml endothelial cell growth supplement (Sigma) and 0.1 mg/ml heparin (Sigma), after which the cells were incubated in an incubator at 37° C. under 5% CO2. Cells were subcultured a maximum of 8 times before being discarded.
In order to evaluate inhibitory activity of the fumagillin derivative on growth of HUVECs, the inventive compound was dissolved in DMSO and its concentration was adjusted from 10 mM to 1 mM. Cells were aliquotted to 96 well plates at a density of 2×10^3 cells per well and incubated for about 12–24 hours to be properly attached to the plate. Thereafter, the medium was replaced with new medium. The cells were treated with the compound obtained from each of the above examples at various concentration ranges of from 10 μM to […], and cultured for 2–3 days, followed by removing 100 μl of the medium from each well.
Colorimetry was performed to determine the extent of cell growth. The cells on each plate was added with 20 μl of aqueous one solution and then incubated at 37° C. under 5% CO2 for 2 hours. Using a 96-well plate reader, absorption was measured at 490 nm.
As such, a conventional TNP-470 having angiogenesis inhibitory effect was used as a control.

For CO[C@@H]1[C@H](OC(=O)CNCC(C)=O)CC[C@]2(CO2)[C@H]1[C@@]1(C)OC1CC=C(C)C (stereo partly drawn) [Ex. 71, 6-O-(2-oxo-propylamino)acetyl fumagillol], which IC50 is on record?
Its IC50 is 260 ng/mL (≈ 657 nM).

CCOC(=O)CNCC(=O)O[C@@H]1CC[C@]2(CO2)[C@@H]([C@@]2(C)OC2CC=C(C)C)[C@@H]1OC (stereo partly drawn) [Ex. 73, 6-O-(ethyl-2-aminoacetate)acetyl fumagillol] was tested. Which IC50 did it give?
Its IC50 is 1200 ng/mL (≈ 2820 nM).

COc1cc(NCC(=O)O[C@@H]2CC[C@]3(CO3)[C@@H]([C@@]3(C)OC3CC=C(C)C)[C@@H]2OC)cc(O)c1OC (stereo partly drawn) [Ex. 27, 6-O-(3,4-dimethoxy-5-hydroxyaniline)acetyl fumagillol] was tested. Which IC50 did it give?
The IC50 was 88 ng/mL (≈ 179 nM).

Which IC50 does the source give for COc1ccc(NCC(=O)O[C@@H]2CC[C@]3(CO3)[C@@H]([C@@]3(C)OC3CC=C(C)C)[C@@H]2OC)cn1 (stereo partly drawn) [Ex. 36, 6-O-(5-amino-2-methoxypyridine)acetyl fumagillol] here?
Its IC50 is 0.021 ng/mL (≈ 0.047 nM).

For CCC(C)C(C)NCC(=O)O[C@@H]1CC[C@]2(CO2)[C@@H]([C@@]2(C)OC2CC=C(C)C)[C@@H]1OC (stereo partly drawn) [Ex. 52, 6-O-(1,2-dimethylbutylamino)acetyl fumagillol], which IC50 is on record?
Its IC50 is 290 ng/mL (≈ 685 nM).

Which IC50 does the source give for CCCCCNCC(=O)O[C@@H]1CC[C@]2(CO2)[C@@H]([C@@]2(C)OC2CC=C(C)C)[C@@H]1OC (stereo partly drawn) [Ex. 48, 6-O-(pentylamino)acetyl fumagillol] here?
Its IC50 is 3000 ng/mL (≈ 7320 nM).

With CO[C@@H]1[C@H](OC(=O)CNc2ccc([N+](=O)[O-])cc2)CC[C@]2(CO2)[C@H]1[C@@]1(C)OC1CC=C(C)C (stereo partly drawn) [Ex. 24, 6-O-(4-nitroaniline)acetyl fumagillol] as the compound, how does the IC50 read?
Its IC50 is 181 ng/mL (≈ 393 nM).

With CCCCNCC(=O)O[C@@H]1CC[C@]2(CO2)[C@@H]([C@@]2(C)OC2CC=C(C)C)[C@@H]1OC (stereo partly drawn) [Ex. 44, 6-O-(1-butylamino)acetyl fumagillol] as the compound, how does the IC50 read?
Its IC50 is 3200 ng/mL (≈ 8090 nM).

How did the IC50 turn out when COc1cc(C#N)c(NCC(=O)O[C@@H]2CC[C@]3(CO3)[C@@H]([C@@]3(C)OC3CC=C(C)C)[C@@H]2OC)cc1OC (stereo partly drawn) [Ex. 6, 6-O-(3,4-dimethoxy-6-cyanoaniline)acetyl fumagillol] was run?
Its IC50 is 19 ng/mL (≈ 38 nM).

CO[C@@H]1[C@H](OC(=O)CCl)CC[C@]2(CO2)[C@H]1[C@@]1(C)OC1CC=C(C)C (stereo partly drawn) [Intermediate, 6-O-(chloro)acetyl fumagillol] was tested. Which IC50 did it give?
Its IC50 is 2000 ng/mL (≈ 5570 nM).

How did the IC50 turn out when CCOc1cc(C)c(NCC(=O)O[C@@H]2CC[C@]3(CO3)[C@@H]([C@@]3(C)OC3CC=C(C)C)[C@@H]2OC)cc1C(C)C (stereo partly drawn) [Ex. 16, 6-O-(3-isopropyl-4-ethoxy-6-methylaniline)acetyl fumagillol] was run?
Its IC50 is 0.17 ng/mL (≈ 0.33 nM).

For CO[C@@H]1[C@H](OC(=O)CNCC(C)(C)OC)CC[C@]2(CO2)[C@H]1[C@@]1(C)OC1CC=C(C)C (stereo partly drawn) [Ex. 70, 6-O-(2-methoxy-2-methyl-propylamino)acetyl fumagillol], which IC50 is on record?
The IC50 was 178 ng/mL (≈ 418 nM).

Which IC50 does the source give for COc1ccc(NCC(=O)O[C@@H]2CC[C@]3(CO3)[C@@H]([C@@]3(C)OC3CC=C(C)C)[C@@H]2OC)nn1 (stereo partly drawn) [Ex. 38, 6-O-(3-methoxy-6-aminopyridazine)acetyl fumagillol] here?
Its IC50 is 0.019 ng/mL (≈ 0.0425 nM).

How did the IC50 turn out when C=CCOc1ccc(NCC(=O)O[C@@H]2CC[C@]3(CO3)[C@@H]([C@@]3(C)OC3CC=C(C)C)[C@@H]2OC)cc1 (stereo partly drawn) [Ex. 7, 6-O-(4-allyloxyaniline)acetyl fumagillol] was run?
The IC50 was 21 ng/mL (≈ 44.5 nM).

How did the IC50 turn out when COc1cc(NCC(=O)O[C@@H]2CC[C@]3(CO3)[C@@H]([C@@]3(C)OC3CC=C(C)C)[C@@H]2OC)cc(OC)c1OC (stereo partly drawn) [Ex. 2, 6-O-(3,4,5-trimethoxyaniline)acetyl fumagillol] was run?
The IC50 was 0.15 ng/mL (≈ 0.297 nM).

Same assay, conditions: Homo sapiens; HUVEC growth, cultured 2–3 days with compound, absorption at 490 nm; read-out: IC50

With CO[C@@H]1[C@H](OC(=O)CNc2ccc(N(C)C)cc2)CC[C@]2(CO2)[C@H]1[C@@]1(C)OC1CC=C(C)C (stereo partly drawn) [Ex. 20, 6-O-(4-dimethylaminoaniline)acetyl fumagillol] as the compound, how does the IC50 read?
Its IC50 is 162 ng/mL (≈ 353 nM).

How did the IC50 turn out when CO[C@@H]1[C@H](OC(=O)CNC(C(C)C)C(C)C)CC[C@]2(CO2)[C@H]1[C@@]1(C)OC1CC=C(C)C (stereo partly drawn) [Ex. 54, 6-O-(1-isopropyl-2-methylpropylamino)acetyl fumagillol] was run?
The IC50 was 11 ng/mL (≈ 25.1 nM).

With COc1cnc(NCC(=O)O[C@@H]2CC[C@]3(CO3)[C@@H]([C@@]3(C)OC3CC=C(C)C)[C@@H]2OC)nc1 (stereo partly drawn) [Ex. 37, 6-O-(5-methoxypyrimidine-2-amino)acetyl fumagillol] as the compound, how does the IC50 read?
The IC50 was 0.017 ng/mL (≈ 0.038 nM).
